Source: patent US9334523B2, “Substrates and methods for staining live stem cells” (LIFE TECHNOLOGIES CORPORATION, priority 2011, dated 2016)
“Also recorded” adds a separate entry of the source. Read-outs that look alike come from different tables or passages of the source.

How the values were obtained:
[1] = test system: MEF (mouse embryonic fibroblast) feeder cells; test: Background staining in negative control cells (MEFs, fibroblasts); format: cell-based
Experimental: (§1) Here, two test alkaline phosphate substrates, Fluorescein diphosphate-AM ester (FDP-AM) and DDAOP-AM ester were tested for live staining on pluripotent stem cells like H9 ESCs cultured on MEF (mouse embryonic fibroblast) feeder cells. H9 ESCs and other stem cells expressed high alkaline phosphatase. Negative control cells were MEFs and human dermal fibroblasts which express far lower levels of alkaline phosphatase.
(§2) A 10 mM substrate master stock solution (1000×) of fluorescein diphosphate-AM ester (FDP-AM) or DDAOP-AM was prepared (for FDP-AM for e.g., by adding 512.5 μL of tissue culture grade DMSO to 4 mg of the compound (MW: 780.52)).
(§3) Then, 100 μL of 10 mM FDP-AM or DDAOP-AM solution was diluted into 900 μL of DMEM to make 1 mM working stock; or 10 μM working stock was prepared by diluting 10 μl to 10 ml with 100 mM Tris-HCl pH 8.2 or DMEM basal media; or 1 μM working stock was prepared by diluting 10 μL of 1 mM working stock in 10 ml of DMEM, which was used.
(§4) The AP (alkaline phosphatase) live compound with concentrations ranging: >1 μM, 5 μM, 10 μM, 50 μM, 100 μM, and 200 μM, was made by adding 1, 5, 10, 50, 100 and 200 μL of 1 mM FDP-AM or DDAOP-AM working stock. Similarly, the AP live compounds with concentrations ranging: >20 nM, 50 nM, 100 nM, 250 nM, 500 nM, and 800 nM, was made by adding 2, 5, […], 25, 50 and 80 μL of 1 μM FDP-AM working stock. The first dilution was added to an empty plate (no seeded cells) containing DMEM. The final concentration of the substrates, on the cells, were as follows: 50-200 nM for FDP-AM, and 50-200 μM for DDAOP-AM.
(§5) Incubation times were then determined, beginning with 90 seconds. Where no FITC expression was detected, expression was continued for up to 30 minutes. Levamisole was added to the wash buffer to quench the reaction. This step is whoever optional and not necessary. The samples were rinsed with DMEM and visualized.

[2] = test system: differentiating osteoblasts versus AdSCs; test: Staining of adipose derived mesenchymal stem cells and derived osteoblasts; format: cell-based; settings: FIG. 8
Text: Alkaline phosphatase is also expressed at high levels in differentiating osteoblasts and mature osteocytes.

[3] = test system: H9 ESCs; test: Live staining of H9 ESCs cultured on MEF feeders with alkaline phosphatase substrates; format: cell-based, human; settings: for concentration range of fluorescence: FIG. 1; for concentration at which robust staining of ESC colonies was achieved: FIG. 2
Experimental: as §1, §2, §3, §4, §5

[4] = test system: mouse ESCs; test: Live staining of mouse ESCs on MEF feeders; format: cell-based; settings: 200 nM, 30 min
Text: Alkaline phosphatase is not specific just for human ESCs but also for murine ESCs. […] The fluorescent signal is robust and visible at lower 5× magnification [FIG. 7].

SMILES | background staining in negative control MEFs [1] | background staining in negative control MEFs ([1]; listed as DDAO-AM) | specificity of staining of osteoblasts versus parent AdSC/MSC [2] | morphology of stained ESCs [3] | concentration range of fluorescence [3] | concentration at which robust staining of ESC colonies was achieved [3] [µM] | background in MEF feeder cells of mESC culture [4] | staining of mESC colonies [4] | staining of ESC colonies [3] | time for substrate to diffuse out of the ESC [3] | viability of cells after the substrate diffuses out [3] | proliferation of stained cells after removal of the substrate ([3]; 100-200 nM, 30 minutes) | cell-specific marker expression of stained cells ([3]; after staining and removal of the substrate) | re-staining with a second exposure the following day ([3]; after washing, culturing overnight, 30 min exposure) | removal of fluorescent stain from stained cells ([3]; media with substrate replaced with fresh ESC culture media) | effect on viability or morphology of stained cells [3]
CC(=O)OCOP(=O)(OCOC(C)=O)Oc1ccc2c(c1)C(C)(C)C1=C(Cl)C(=O)C(Cl)=CC1=N2 [DDAOP-AM, DDAO phosphate-AM ester] | high background expression | higher background in negative control cells | failed to show specific staining; also recorded: does not show specific staining | altered morphology | micomolar range | 200 | – | – | – | – | – | – | – | – | – | –
CC(=O)OCOP(=O)(OCOC(C)=O)Oc1ccc2c(c1)Oc1cc(OP(=O)(OCOC(C)=O)OCOC(C)=O)ccc1C21OC(=O)c2ccccc21 [FDP-AM, Fluorescein diphosphate-AM ester] | minimal background | – | specific staining of differentiating osteoblasts with minimal background in its parental undifferentiated MSC; also recorded: specific staining for the differentiated phenotype (osteoblast) but not in AdSCs | – | nanomolecular range | 0.2 | minimal background staining; also recorded: little or no background | specially stains mESC; also recorded: robust staining | successful staining; also recorded: robust staining | within two hours | viable overnight | continue to proliferate even after removal of the substrate | retain their cell-specific marker expression; also recorded: retained their marker expression | successfully re-stained | completely removed | –
O=C1OC2(c3ccc(O)cc3Oc3cc(O)ccc32)c2ccccc21 [fluorescein] | – | – | – | – | – | – | – | – | – | – | – | – | – | – | – | does not affect the viability or morphology
